Patent US5863916A, “8-aza, 6-aza and 6,8-diaza-1,4-dihydroquinoxaline-2,3-diones and the use thereof as antagonists for the glycine/NMDA receptor” (priority 1997, dated 1999)

Columns and labels:
[1] = system: glycine binding site of the NMDA receptor; conditions: cited from earlier work
MES-induced seizures = assay: anticonvulsant activity, maximum electroshock-induced seizure (MES) experiment in mice; type: in vivo, mouse; conditions: for ED50: Mus musculus, iv, read-out: ED50 as an anticonvulsant in MES experiment
Experimental: The anticonvulsant activity of the glycine antagonists may be assessed in the maximum electroshock-induced seizure (MES) assay in mice. […] The seizure stimulus parameters were: 50 mA, 60 Hz, rectangular pulse, width 0.8 msec, duration 200 msec. Tonic hind limb extension observed after application of the electrical stimulus was recorded as occurrence of seizure. The drug was applied i.v. as an aqueous basic solution.

glycine/NMDA receptor = glycine/NMDA receptor affinity (1 μM glycine-stimulated [3H]-MK801 binding, rat brain membranes; also estimated by electrophysiology)
Experimental: The assay is conducted using rat brain membrane homogenates that are enriched in NMDA receptors. The membranes are prepared as follows. Frozen rat brains (obtained from Pel-Freez, Rogers, Ark.) are homogenized in 15 volumes (w/v) of ice cold 0.32M sucrose. The homogenate is spun at 1,000×g for ten minutes. The supernatant is collected and spun for 20 minutes at 44,000×g. The pellet is suspended in 15 volumes of water (relative to original brain weight). The homogenate is again spun at 44,000×g for twenty minutes. The pellet is resuspended in 5 volumes of water and the suspension is freeze-thawed 2 times. After the final thaw cycle, the suspension is brought to 15 volumes with water and spun at 44,000×g for twenty minutes. The pellet is resuspended in 5 volumes of ice-cold 10 mM HEPES, and is titrated to pH 7.4 with KOH containing 0.04% Triton X-100. […] The volume is then brought to 15 with ice-cold 10 mM HEPES, pH 7.4, and spun/washed three times with spins of 44,000×g between washes. The final pellet is suspended in three volumes of 50 mM HEPES, pH 7.4 and the protein concentration is determined with a standard dye-binding protein assay (Bio-Rad, Richmond, Calif.). The suspension is stored at -80° C. until used. Only HPLC grade water is used for all buffers and suspensions/washings. The extensive washings are necessary to remove as much endogenous glycine from the membrane preparation as possible.
Nonspecific binding is defined as the […] presence of PCP (final concentration: 100 μM). […] A 500 nM concentration (final) of 5,7-dichlorokynurenic (DCK) acid is added to all assay tubes. This concentration of the glycine antagonist DCK "buffers" most of the residual endogenous glycine that is not removed by the extensive washing steps that are carried out during the membrane preparation procedure.
Filtration is accomplished using a Brandel 48 well cell harvester. Filtered membranes are washed three times with 3 mL each of ice cold buffer. Filters are transferred to scintillation vials and 5 mL of scintillation cocktail is added. The vials are shaken overnight and the radioactivity is counted by liquid scintillation spectroscopy. The assays are done in triplicate and all experiments are conducted at least three times.
(§1) The binding affinities at NMDA receptor glycine sites also were estimated by electrophysiological assay either using cloned rat NMDA receptors expressed in Xenopus oocytes, or non-NMDA receptors expressed in oocytes by whole rat brain poly(A)^+ RNA. […] For NMDA receptors Kb s were approximated by averaging values at three subtype combinations (NR1A/NR2A, NR1A/NR2B, and NR1A/NR2C).

[2] = system: MES-induced tonic clonic seizures; assay: Example 35: time course and potency in maximum electroshock (MES) model, i.v., mice; type: in vivo, Swiss-Webster mouse; conditions: for protection of mice at the lowest dose: 2 minutes; for animals showing no tonic seizures: 2 minutes after i.v. 5 mg/kg (6-chloro-8-(N-oxy)aza) or 10 mg/kg (6-chloro-7-methyl-8-(N-oxy)aza); for mice protected against seizures: 15 minutes after i.v. 5 mg/kg (6-chloro-8-(N-oxy)aza) or 10 mg/kg (6-chloro-7-methyl-8-(N-oxy)aza); for ED50: Mus musculus, iv, 2 min, Litchfield and Wilcoxon, read-out: ED50, inhibition of MES-induced seizures; for ED50 / 95% confidence limits of ED50 / inhibition of MES-induced seizures / time of maximal anti-MES effect: i.v.; for ED50 / 95% confidence limits of ED50: 2 minutes post injection; for efficacy in inhibiting MES-induced tonic seizures over time: i.v. time course, 2-60 minutes; for inhibition of MES-induced seizures: dose dependence; for time of maximal anti-MES effect: post-injection
Text: The objectives of the studies were to determine the time of maximal effect and potency for compounds 6-chloro-8-(N-oxy)aza-1,4-dihydroquinoxaline-2,3-dione and 6-chloro-7-methyl-8-(N-oxy)aza-1,4-dihydroquinoxaline-2,3-dione in the inhibition of maximal electroshock (MES)-induced tonic clonic seizures following intravenous (i.v.) administration in mice.
The time-course study involved a one-factor, between groups design in which animals were divided into groups based on the time between administration of 6-chloro-8-(N-oxy)aza-1,4-dihydroquinoxaline-2,3-dione and 6-chloro-7-methyl-8-(N-oxy)aza-1,4-dihydroquinoxaline-2,3-dione and the MES stimulus. Similarly, the potency study involved a one-factor, between group design in which animals were divided into groups based on drug dose. Each group in both studies consisted of 8 animals.
6-Chloro-8-(N-oxy)aza-1,4-dihydroquinoxaline-2,3-dione and 6-chloro-7-methyl-8-(N-oxy)aza-1,4-dihydroquinoxaline-2,3-dione were dissolved in 0.05M Tris (J. T. Baker) at concentrations of 5 mg/mL and 2.5 mg/mL, respectively.
Experiments were conducted with Swiss-Webster male mice (Simonsen Lab. Inc.). Mice were 5-6 weeks old and weighed 18-24 g upon arrival in the laboratory. In the time course study, mice were treated with an i.v. injection of 6-chloro-8-(N-oxy)aza-1,4-dihydroquinoxaline-2,3-dione (5 mg/kg) or 6-chloro-7-methyl-8-(N-oxy)aza-1,4-dihydroquinoxaline-2,3-dione(10 mg/kg) or vehicle. Mice were tested at 2, 15, 30, or 60 minutes after vehicle or drug administration. […] The electroshock device was a Ugo Basile ECT Unit 7801 (Varese, Italy; Model 24093). The electroshock characteristics were as follows: 50 mA, 60 pulses per second, […], and a 0.2 second train length. […] Tonic seizures were defined as the tonic extension of the forelimbs and hindlimbs. […] Therefore, the result from each animal was an all-or-none phenomenon with either a seizure present or absent following the shock administration. The time point at which 6-chloro-8-(N-oxy)aza-1,4-dihydroquinoxaline-2,3-dione and 6-chloro-7-methyl-8-(N-oxy)aza-1,4-dihydroquinoxaline-2,3-dione produced a maximal response was determinated by analyzing the graphical results. The dose at which 50% of the animals were protected against MES-induced seizures (ED50) was calculated by Litchfield and Wilcoxon Method (Pharm/PCS R. J. Tallarida & R. B. Murray Version 4.2).

[3] = blood-brain-barrier crossing inferred from Ki and MES ED50; type: in vivo, mouse
[4] = system: focal cerebral ischemia (MCA occlusion); assay: rat model of permanent focal cerebral ischemia (MCA occlusion), infarct volume; type: in vivo, Sprague-Dawley rat
Experimental: Male Sprague-Dawley rats ([…]) were intubated and maintained under anesthesia with ±2% of halothane. Body temperature was maintained at 37.5° C. during surgery by means of a warming pad and a rectal probe connected to the control unit. The common carotid arteries (CCA) were isolated and a loose silk ligature was placed around each CCA. A vertical skin incision was made between the left orbit and the auditory canal, posterior part of zygoma removed, and a small opening (2.0/2.5 mm) drilled dorsorostrally to the foramen ovale under constant saline irrigation. The dura was opened with a microsurgical hook and the brain gently retracted with a fine spatula to expose the bifurcation of the internal carotid artery and the middle cerebral artery. The ipsilateral CCA was ligated and the MCA coagulated from its origin to the olfactory tract. Two hours after MCA occlusion, the clip from the contralateral CCA was removed. […]
Brains were sliced into 2 mm blocks and stained with tetrazolium red (2,3,5-triphenyl tetrazolium chloride). The areas of brain damage were assessed using an image analyzer (Image-1, Universal Imaging Corporation, PA) to determine the volume of cortical and subcortical infarction by integration of areas and the distance between each level.

non-NMDA receptor = non-NMDA receptor affinity; type: binding, rat
Experimental: (§2) Filtered membranes are washed three times with 3 mL each of ice cold buffer.
as §2, §1

brain ischemia / neurons = conditions: cited from earlier work
katalepsy = conditions: pigeons; cited from earlier work
[5] = system: PCP-like behavioral effects; conditions: in vivo; cited from earlier work
[6] = 20 mg/kg bolus + 14 mg/kg/h for 22 h, 30 min after MCA occlusion

## O=C(O)c1cc(O)c2c(Cl)cc(Cl)cc2n1 [5,7-dichlorokynurenic acid]
[1]
  receptor binding affinity in vitro: relatively high receptor binding affinity in vitro

## O=c1[nH]c2cc(Cl)c(Cl)[n+]([O-])c2[nH]c1=O [6,7-Dichloro-8(N-oxy)aza-1,4-dihydroquinoxaline-2,3-dione]
MES-induced seizures
  ED50: 7.5 mg/kg
glycine/NMDA receptor
  Ki: 100 nM

## O=c1[nH]c2cc(Cl)c(Cl)c([N+](=O)[O-])c2[nH]c1=O [6,7-dichloro-5-nitro-1,4-dihydroquinoxaline-2,3-dione, reference compound]
MES-induced seizures
  ED50 as an anticonvulsant in MES experiment: 4 to 5 mg/kg
glycine/NMDA receptor
  Ki: 3.3 nM

## O=c1[nH]c2cc(Br)c[n+]([O-])c2[nH]c1=O [6-Bromo-8-(N-oxy)aza-1,4-dihydroquinoxaline-2,3-dione]
MES-induced seizures
  ED50: 1 to 1.5 mg/kg
glycine/NMDA receptor
  Ki: 1000 nM

## Cc1c(Cl)cc2[nH]c(=O)c(=O)[nH]c2[n+]1[O-] [6-Chloro-7-methyl-8-(N-oxy)aza-1,4-dihydroquinoxaline-2,3-dione]
[2]; 4 mg/kg i.v.
  protection of mice at the lowest dose: 12.5%
[2]
  animals showing no tonic seizures: 8/8
  mice protected against seizures: 3/8
  ED50: 6.71 mg/kg
  efficacy in inhibiting MES-induced tonic seizures over time: decreased over one hour
  95% confidence limits of ED50: 5.48 to 8.22 mg/kg
  inhibition of MES-induced seizures: dose dependently, inhibited MES-induced seizures
  time of maximal anti-MES effect: 2 min
MES-induced seizures
  ED50: 7 mg/kg
glycine/NMDA receptor
  Ki: 50 nM

## [O-][n+]1cc(Cl)cc2nc(O)c(O)nc21 [6-Chloro-8-(N-oxy)aza-1,4-dihydroquinoxaline-2,3-dione]
[2]; 0.5 mg/kg i.v.
  protection of mice at the lowest dose: 25%
[2]
  animals showing no tonic seizures: 8/8
  mice protected against seizures: 4/8
  ED50: 1.26 mg/kg
  efficacy in inhibiting MES-induced tonic seizures over time: decreased over one hour
  95% confidence limits of ED50: 0.94 to 1.67 mg/kg
  inhibition of MES-induced seizures: dose dependently, inhibited MES-induced seizures
  time of maximal anti-MES effect: 2 min
[3]
  blood-brain-barrier crossing relative to 6,7-dichloro-5-nitro-1,4-dihydroquinoxaline-2,3-dione: about 1000 times
[4]; 10 mg/kg bolus + 7 mg/kg/h for 22 h, immediately after MCA occlusion
  protection at the lower dose: no protection
[4]; [6]
  reduction in cortical infarct volume: 70%
  reduction in subcortex infarct volume: 35%
[4]; 20 mg/kg bolus + 14 mg/kg/h for 22 h i.v., immediately after MCA occlusion
  reduction in cortical infarct volume: 67%
[4]; rat model of focal ischemia
  neuroprotection: significant neuroprotection
MES-induced seizures
  ED50: 1 to 1.5 mg/kg
glycine/NMDA receptor
  Ki: 600 nM

## Cc1cc2[nH]c(=O)c(=O)[nH]c2[n+]([O-])c1 [6-Methyl-8-(N-oxy)aza-1,4-dihydroquinoxaline-2,3-dione]
MES-induced seizures
  ED50: 1 to 1.5 mg/kg
glycine/NMDA receptor
  Ki: 2400 nM

## O=C(O)c1cc(O)c2ccc(Cl)cc2n1 [7-Cl-kynurenic acid]
[1]
  receptor binding affinity in vitro: relatively high receptor binding affinity in vitro

## O=c1[nH]c2cc(Cl)cnc2[nH]c1=O [Compound 5, 6-Chloro-8-aza-1,4-dihydroquinoxaline-2,3-dione]
glycine/NMDA receptor
  activity relative to corresponding QX: about as active as the corresponding 6-chloro-QX

## O=c1[nH]c2cc(Cl)c(Cl)nc2[nH]c1=O [Compound 6, 6,7-Dichloro-8-aza-1,4-dihydroquinoxaline-2,3-dione]
glycine/NMDA receptor
  Ki: ~200 nM

## Cc1nc2[nH]c(=O)c(=O)[nH]c2cc1Br [Compound 8, 6-Bromo-7-methyl-8-aza-1,4-dihydroquinoxaline-2,3-dione]
glycine/NMDA receptor
  Ki: ~200 nM

## O=c1[nH]c2ccncc2[nH]c1=O [Compound 11, 6-Aza-1,4-dihydroquinoxaline-2,3-dione]
glycine/NMDA receptor
  activity relative to corresponding QX: about as active as QX

## O=c1[nH]c2cncnc2[nH]c1=O [Compound 13, 6,8-Diaza-1,4-dihydroquinoxaline-2,3-dione]
glycine/NMDA receptor
  activity relative to corresponding QX: about as active as QX

## O=c1[nH]c2cc([N+](=O)[O-])c[n+]([O-])c2[nH]c1=O [Compound 64, 7-Nitro-5-(N-oxy)aza-1,4-dihydroquinoxaline-2,3-dione]
non-NMDA receptor
  Ki: 340 nM
MES-induced seizures
  ED50: 3 to 4 mg/kg
glycine/NMDA receptor
  Ki: 130 nM

## NC1CCN(O)C1=O (stereo not shown) [HA-966]
[1]
  agonist character: partial agonist
  receptor binding affinity in vitro: micromolar affinity for the glycine binding site

## c1ccc(C2(N3CCCCC3)CCCCC2)cc1 [PCP, phencyclidine]
Brain ischemia / neurons
  neuroprotective efficacy: neuroprotective efficacy both in vitro and in vivo
katalepsy
  katalepsy: characteristic katalepsy in pigeons
[5]
  PCP-like behavioral side effects: behavioral excitation (hyperlocomotion) in rodents

## COc1ccc2c(c1)[C@]13CCCC[C@@H]1[C@H](C2)N(C)CC3 [dextromethorphan]
Brain ischemia / neurons
  neuroprotective efficacy: neuroprotective efficacy both in vitro and in vivo

## O=C(O)c1cc2ccccc2[nH]1 [indole-2-carboxylic acid]
[1]
  receptor binding affinity in vitro: relatively high receptor binding affinity in vitro

## CNC1(c2ccccc2Cl)CCCCC1=O (stereo not shown) [ketamine]
Brain ischemia / neurons
  neuroprotective efficacy: neuroprotective efficacy both in vitro and in vivo
